Reference: doi:10.1101/2022.09.09.507370v4 (biorxiv, 2022)

Key:
Assay type in all cases: biochemical
Conditions in all cases: PS-liposome-stimulated (5.0 μM PS-liposomes), 20 nM enzyme, GTP, pH 7.4
Dyn2-His6 = test system: Dyn2-His6
Dyn1-His6 = test system: Dyn1-His6
Dyn3-His6 = test system: Dyn3-His6

**Q.** Which IC50 (Dyn2-His6) does the source give for CCCCCCCCCCCCCC[N+](C)(C)C [MiTMAB] here?
**A.** 9.2 ± 2.5 µM

**Q.** What about the IC50 (Dyn1-His6) of the same compound?
**A.** 8.1 ± 3.7 µM

**Q.** And the IC50 (Dyn3-His6)?
**A.** 7.8 ± 3 µM
